{
  "source": "patent US5091169A",
  "about": "“Dipyridoxyl phosphate NMRI contrast agent compositions” (priority 1989, dated 1992)",
  "origin": "cited, not measured here",
  "settings": "cited from earlier work",
  "data": [
    {"smiles": "O=C([O-])C(NCCNC(C(=O)[O-])c1ccccc1O)c1ccccc1O.[Mn+2]", "note": "(stereo not drawn) [Mn(II) chelates of EHPG]", "values": [
      {"measurement": "stability of manganese(II) complex", "setting": "above pH 5, Frost et al", "result": "irreversibly oxidized"}
    ]},
    {"smiles": "O=C([O-])CN(CCN(CC(=O)[O-])Cc1ccccc1O)Cc1ccccc1O.[Mn+2]", "note": "[manganese chelate of N,N'-bis(2-hydroxybenzyl)ethylenediamine-N,N'-diacetic acid]", "values": [
      {"measurement": "log Kf (formation constant)", "setting": "manganese chelate, reported by L'Eplathenier et al", "result": 14.8}
    ]},
    {"smiles": "O=C(O)CN(CCN(CC(=O)O)Cc1ccccc1O)Cc1ccccc1O", "note": "[HBED, N,N'-bis(2-hydroxybenzyl)ethylenediamine-N,N'-diacetic acid]", "values": [
      {"measurement": "oxidation of manganese(II) during titration", "setting": "L'Eplathenier et al titrations", "result": "the manganese(II) ion was oxidized by the phenolic ligand"}
    ]}
  ]
}
